Inconclusive results are not listed. Activity calls are given as the source filed them. How the calls were made is not given here.
system: Mycobacterium tuberculosis non-replicating, growth inhibition; experiment: growth inhibition of non-replicating M. tuberculosis (AID 488890)

Compound | IC50
O=C(CNC(=O)c1ccccc1F)OCc1csc(-c2ccccc2)n1 | 15.2 µM (inactive)
Brc1ccc(-c2ccc(CNCc3ccccn3)o2)cc1 | 1.12 µM
O=C(CCS(=O)(=O)c1ccccc1)Nc1nnc(-c2ccco2)o1 | 7.69 µM
OC(C#CCN1CCOCC1)c1cccs1 (stereo unspecified) | 7.53 µM
Cc1ccc2nc(N(CCCN(C)C)C(=O)c3ccc4c(c3)CCCC4)sc2c1 | 14.5 µM (inactive)
CC1=NNC(=O)/C1=C\c1cn(-c2ccccc2)nc1-c1cccs1 | 4.96 µM
CCCn1c(CNc2ccccc2O)nc2ccccc21 | 3.3 µM
CC(OC(=O)c1ccc2c(=O)n3c(nc2c1)CCCCC3)C(=O)Nc1ccc(Cl)cn1 (stereo unspecified) | 3.69 µM
O=[N+]([O-])c1cc2oc3c(c2c(C=NCc2ccccc2)c1O)CCCC3 | 2.89 µM
O=C(NCC1CCCCC1)c1ccc([N+](=O)[O-])cc1 | 0.61 µM
C=CCn1c(=O)c(C(=O)Nc2cccnc2)c(O)c2ccccc21 | 7.58 µM
COc1ccccc1NC(=O)C(=O)/C=C(\O)c1ccccc1 | 15.4 µM (inactive)
CC(C)C[C@H]1CN=C(Nc2ccccc2)N1CCCC1CCCCC1 | 8.79 µM
c1ccc(-c2nc3ccccn3c2NC2CCCC2)nc1 | 24.9 µM (inactive)
O=C1CC(=O)CC(c2ccccc2)C1 | 29.8 µM (inactive)
CC1=NN(C(=O)c2csc(C)c2C)C(O)(C(F)(F)F)C1 (stereo unspecified) | 0.4 µM
CN1CCc2c(sc(NC(=O)c3ccc([N+](=O)[O-])o3)c2C(N)=O)C1 | 8.37 µM
Cc1ccc(/C=N/NC(=O)C2COc3ccccc3O2)s1 (stereo unspecified) | 0.7 µM
Cc1ccc(C(=O)Nc2nnc(-c3ccncc3)o2)cc1 | 23.3 µM (inactive)
COc1ccc2c3c(cccc13)OCC2=O | 25.9 µM (inactive)
Cc1cc(C)n2nc(N)c(N=Nc3ccccc3)c2n1 | 5.87 µM
CCOC(=O)Cc1nc2cc(Cl)ccc2o1 | 32.3 µM (inactive)
COc1cccc(-c2nnc(NC(=O)c3ccc4ncsc4c3)o2)c1 | 9.06 µM
O=C(COC(=O)CCc1c[nH]c2ccccc12)NCc1ccc2c(c1)OCO2 | 9.66 µM

Compound | IC50
COC(=O)c1ccc(N2CCN(CCNC(=O)Nc3ccc(OC)cc3)CC2)cc1 | 6.13 µM
CN(C)CCCN(C(=O)CCc1ccccc1)c1nc2ccc(Br)cc2s1 | 14.2 µM (inactive)
Cc1cc(N2CCC(C)CC2)nc(NCc2ccccc2)n1 | 16.4 µM (inactive)
Cc1ccccc1OCC(O)Cn1c(=N)n(Cc2ccccc2)c2ccccc21 (stereo unspecified) | 7.63 µM
O=C(COc1c(Br)cc(Br)c2cccnc12)N1CCCCC1 | 9.93 µM
OCC#CCSc1nnc(-c2ccc(Br)cc2)o1 | 0.33 µM
O=[N+]([O-])c1cc(Cl)cc(/C=N/Nc2nc3ccccc3s2)c1O | 1.8 µM
N#Cc1cc(N)ccc1-n1cccc1 | 6.15 µM
COc1cc(C2C3=C(CC(C)(C)CC3=O)OC(N)=C2[N+](=O)[O-])ccc1O (stereo unspecified) | 50 µM (inactive)
CCOc1cc(-c2nnc(NC(=O)c3ccco3)o2)cc(OCC)c1OCC | 21.6 µM (inactive)
CN1C(=O)NC(=O)/C(=C/c2ccc([N+](=O)[O-])s2)C1=O | 10.3 µM (inactive)
O=C(Nc1nccs1)c1sc2ccccc2c1Cl | 14.3 µM (inactive)
CC(C)Cn1c([N+](=O)[O-])nc2c1c(=O)[nH]c(=O)n2C | 5.81 µM
CCN1C(=O)CC(N2CCC(c3nc4ccccc4[nH]3)CC2)C1=O (stereo unspecified) | 34.2 µM (inactive)
O=c1[nH]c(O)c(/C=C2/C=CC(c3cc(Cl)ccc3Cl)=N2)c(=O)[nH]1 | 0.34 µM
CCCCNC(=O)COC(=O)c1cc(Br)ccc1Cl | 3.86 µM
O=C(COc1ccc(Br)cc1)Nc1ccc([N+](=O)[O-])cn1 | 6.47 µM
CCOC(=O)c1ccc(COC(=O)c2cc3ccccc3oc2=O)o1 | 12.1 µM (inactive)
COc1ccc(C)c2sc(NC(=O)CCS(=O)(=O)c3ccccc3)nc12 | 6 µM
CC1=NN(C(=O)c2csc(C)c2)C(O)(C(F)(F)F)C1 (stereo unspecified) | 0.49 µM
COC(=O)COc1ccc2c(=O)c(Oc3ccccc3)c(C)oc2c1 | 1.7 µM
O=C(Nc1ccc(S(=O)(=O)N2CCOCC2)cc1)c1ccc([N+](=O)[O-])o1 | 5.29 µM
O=C(c1ccc([N+](=O)[O-])o1)N1CCN(c2nc3ccc(F)cc3s2)CC1 | < 0.1 µM
O=C(NC(=S)N1CCN(Cc2ccc3c(c2)OCO3)CC1)c1ccc(Cl)cc1 | 33.4 µM (inactive)

Compound | IC50
COc1ccc(Cc2nnc(-c3ccccc3)o2)cc1 | 0.19 µM
O=c1c2ccccc2sn1-c1ccccc1 | 6.8 µM
CCC(=O)c1ccc(OCC(=O)OCC(=O)c2cc(C)n(C3CC3)c2C)cc1 | 7.97 µM
CC(C)COc1ccc(C(=O)CCN2CCCCC2)cc1 | 9.7 µM
CCC1CCc2sc(C(=O)NCC3CCCO3)cc2C1 (stereo unspecified) | 1.44 µM
O=C(Nc1ccc(N2CCN(C(=O)c3cccs3)CC2)cc1)c1ccc([N+](=O)[O-])o1 | 0.35 µM
O=c1oc2ccccc2c(Nc2ccccc2O)c1[N+](=O)[O-] | 8.58 µM
O=C(Nc1ncc2c(n1)-c1ccccc1OC2)c1ccc(F)cc1 | 4.39 µM
O=C(OCC(=O)N1CCc2ccccc21)c1ccc([N+](=O)[O-])cc1 | 12.5 µM (inactive)
Cc1ccc(C)c(-c2nnc(NC(=O)C3=COCCO3)o2)c1 | 23.1 µM (inactive)
Cc1ccc2nc3c(c(N)c2c1)CCN3c1ccccc1 | 28.4 µM (inactive)
CC/C(=C\c1oc2cc3ccccc3cc2[n+]1CC)Nc1ccccc1 | 3.14 µM
Cc1[nH]n(-c2cccc(Cl)c2)c(=O)c1/C=N/n1c(C)nc2ccccc2c1=O | 19.5 µM (inactive)
CCCc1nnc(NC(=O)c2cc3ccccc3oc2=O)s1 | 2.34 µM
C/C(CC(=O)Nc1ccc(C)c(Cl)c1)=N\NC(=O)c1ccco1 | 28.8 µM (inactive)
O=C(O/N=C/c1ccc2c(c1)OCO2)c1ccc([N+](=O)[O-])cc1 | 11.6 µM (inactive)
CCOC(=O)COc1ccc(C(=O)c2ccccc2)c(O)c1 | 1.24 µM
CC(=O)N1N=C(c2ccccc2)OC1c1ccc([N+](=O)[O-])s1 (stereo unspecified) | 13.4 µM (inactive)
O=C(O)c1ccccc1-c1ccccc1C(=O)Nc1nc2ccccc2s1 | 6.29 µM
Cc1ccc(CNC(=O)c2cnccn2)cc1 | 1.36 µM
NNC(=O)COc1cccc(Oc2ccccc2)c1 | 25.2 µM (inactive)
CC1=C(C)/C(=N\OS(=O)(=O)c2ccccc2)C=CC1=O | 1.47 µM
O=C(Nc1nc2c(Cl)cccc2s1)c1ccc([N+](=O)[O-])o1 | 1.56 µM
C/C(=N\NC(=O)c1ccncc1)c1cc2ccccc2oc1=O | 0.43 µM

Compound | IC50
Cc1ccnc(NC(=O)CCc2c[nH]c3ccccc23)c1 | 5.51 µM
Cc1ccc(-n2nnnc2CNC(=O)c2ccc([N+](=O)[O-])o2)cc1C | 24.2 µM (inactive)
Cc1nc(/N=C(\N)NC(=O)NC2CCCCC2)nc2ccccc12 | 10.3 µM (inactive)
COc1ccc(C(CCNCc2ccccc2)c2ccc(F)cc2)cc1 (stereo unspecified) | 8.67 µM
Clc1ccc(OCCCNCc2ccccc2)c2ccccc12 | 5.99 µM
COc1ccc(C(=O)Nc2ccccc2C(=O)N/N=C/c2ccccn2)cc1OC | 24.7 µM (inactive)
Brc1c(-c2ccc3c(c2)OCO3)nc2ncccn12 | 1.1 µM
Cc1cc(C)n(-c2ccc3cccc(NS(C)(=O)=O)c3n2)n1 | 4.85 µM
CN(C)S(=O)(=O)c1ccc(C(=O)Oc2ccccc2)cc1 | 2.41 µM
CC(NC(=O)c1cc2ccccc2oc1=O)c1ccccc1 (stereo unspecified) | 0.86 µM
COc1cc(/C=N/Nc2ccc(Cl)c(C(=O)O)c2)ccc1OC(=O)c1cccs1 | 8.27 µM
CC(C)n1c(=S)[nH]c2ccccc2c1=O | 14.2 µM (inactive)
O=[N+]([O-])c1ccc(CN2CCN(c3ccc(F)cc3)CC2)o1 | 0.45 µM
Nc1ncnc(Oc2cccc3cccnc23)c1[N+](=O)[O-] | 4.36 µM
Cn1c(=O)[nH]c(=O)c2c1nc([N+](=O)[O-])n2Cc1ccccc1 | 4.58 µM
O=C(c1ccc([N+](=O)[O-])o1)N1CCN(Cc2ccccc2)CC1 | 2.81 µM
Cc1ccc(CCC(=O)Nc2ccc([N+](=O)[O-])cc2)o1 | 15.1 µM (inactive)
O=C(Nc1nc2ccccc2n1CCN1CCCC1)C1CCCCC1 | 17.8 µM (inactive)
Cc1nnc(N/N=C/c2ccc(-c3ccccc3F)o2)n1N | 10.6 µM (inactive)
S=C1CN=C(c2ccccc2)c2cc(Cl)ccc2N1 | 8.42 µM
CCS(=O)(=O)c1ncc(Cl)c(C(=O)Nc2ccc(S(=O)(=O)N(C)c3ccccc3)cc2)n1 | 7.18 µM
CCCC(O)(CCC)C(=O)NNc1ccc(C)cc1 | 5.94 µM
CCOC(=O)CCNC(=O)c1ccc2nc(C3CCCCC3)oc2c1 | 28.8 µM (inactive)
COc1cc(C(=O)N/N=C/c2cc([N+](=O)[O-])cs2)cc(OC)c1OC | 3.58 µM

Compound | IC50
O=C(OCc1c(Cl)cccc1Cl)c1ccccn1 | 6.6 µM
COc1cccc(COC(=O)c2sc3nc4n(c(=O)c3c2C)CCC4)c1OC | 2.48 µM
CN(C)CCCn1c(=O)n(CCc2ccccc2)c(=O)c2c3c(sc21)CCCCC3 | 16.9 µM (inactive)
CSc1ccc(C(=O)C2CCCN(Cc3cc4ccccc4[nH]3)C2)cc1 (stereo unspecified) | 11.1 µM (inactive)
COc1ccc(CCNc2cc(-c3ccccc3)nc3ncnn23)cc1 | 0.49 µM
COc1cccc(COC(=O)CCNC(=O)c2ccc(Br)cc2)c1OC | 15.6 µM (inactive)
CCCn1nnnc1NC(=O)c1ccc2ccccc2c1 | 3.46 µM
O=C(OCn1nnc2ccccc2c1=O)c1ccc(N2CCOCC2)c([N+](=O)[O-])c1 | 22.8 µM (inactive)
CCOCC(=O)Nc1ccc(C)c(Cl)c1 | 5.63 µM
Cc1cccc(OCCCCc2c(C)n[nH]c2C)c1 | 9.86 µM
CN(C)CCNc1c2c(c(C#N)c3nc4ccccc4n13)CCCC2 | 14.5 µM (inactive)
CN(C)c1c2ccccc2nc2c(F)c(F)c(F)c(F)c12 | 5.75 µM
Cc1ccc2c(c1)c1c(n2CC(O)CNC2CCCCC2)CCCC1 (stereo unspecified) | 16.7 µM (inactive)
CCc1ccc(C2=C/C(=C/c3cccnc3)C(=O)O2)cc1 | 21.2 µM (inactive)
Cc1ccc(C(=O)N/N=C/C=C/c2ccccc2)cc1 | 3.77 µM
Cc1nnc(NC(=O)c2ccc3ccccc3c2)o1 | 1.55 µM
CCCCCCCC(=O)N/N=C(\C)c1ccc(O)cc1O | 1.57 µM
Cc1cc(C)n(-c2nc(NCCN(C)C)c3c4c(sc3n2)CCCC4)n1 | 9.66 µM
Cc1ccccc1OCCCCc1c(C)n[nH]c1C | 13.1 µM (inactive)
Cc1ccc(-c2nnc(-c3cccs3)o2)cc1 | 2 µM

From PubChem BioAssay AID488890 (Southern Research Specialized Biocontainment Screening …, 2010)
